Calls of active or inactive are those of the source.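 The calls were made as follows: active = more than half of replicate measurements showing over 20% loss of kinase signal relative to plate controls; inconclusive = some but at most half of replicates over 20% loss; inactive = no replicate over 20% signal loss.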 A value given as a limit tells only on which side of the number the result lay.

The target in this assay is Glycogen synthase kinase-3 alpha (Homo sapiens) (UniProt P49840). Kind of assay: concentration-response blocking of human GSK3A – biochemical, luminescence, cell-free homogeneous, retest, dose response (AID 463203). The following applies: GSK-3 alpha enzyme, ADP-Glo luminescence, 60 min.
Chain of Glycogen synthase kinase-3 alpha (Homo sapiens) (P49840 whole entry, looked up): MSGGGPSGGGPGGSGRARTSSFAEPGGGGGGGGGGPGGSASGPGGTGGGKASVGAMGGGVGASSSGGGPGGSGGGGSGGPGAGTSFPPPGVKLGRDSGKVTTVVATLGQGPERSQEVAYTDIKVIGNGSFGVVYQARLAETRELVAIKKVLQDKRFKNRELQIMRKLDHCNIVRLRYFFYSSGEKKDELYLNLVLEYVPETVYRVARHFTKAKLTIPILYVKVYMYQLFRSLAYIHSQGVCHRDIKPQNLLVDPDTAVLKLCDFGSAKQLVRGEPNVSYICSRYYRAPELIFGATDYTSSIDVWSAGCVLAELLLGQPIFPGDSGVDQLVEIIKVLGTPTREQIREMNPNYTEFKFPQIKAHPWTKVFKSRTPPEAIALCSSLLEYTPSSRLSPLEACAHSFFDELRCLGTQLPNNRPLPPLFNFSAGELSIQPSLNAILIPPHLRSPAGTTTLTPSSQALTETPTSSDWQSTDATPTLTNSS

As usually defined, the AC50 is the midpoint of the concentration-response curve, whichever way the signal moves. Regarding `O=C1/C(=C/c2ccc3c(c2)OCO3)Oc2cc(OCC(=O)N3CCC[C@H]3C(=O)O)ccc21`, the AC50 is 4.35 µM.
As to `NCCNc1ccc([N+](=O)[O-])c(NC2CC2)c1`, the AC50 is > 30 µM (inactive).
For the compound `Cc1ccc(N(CC(O)CN2CCCCC2)S(=O)(=O)c2ccccc2)cc1` (configuration not stated), the AC50 is > 30 µM (inactive).
On to `Cn1cnnc1SCC(=O)Nc1ncc([N+](=O)[O-])s1`, for which the AC50 was > 30 µM (inactive).
Consider `COc1cc(NC(=O)c2cc([N+](=O)[O-])ccc2NC(=O)CNC2CCCCC2C)cc(OC)c1` (configuration not stated), for which the AC50 was > 30 µM (inactive).
For the compound `C=CCn1c(O)c(/C(C)=N/N2CCCCCC2)c(=O)[nH]c1=O`, the AC50 is 28.8 µM.
Turning to `COc1ccc(S(=O)(=O)N[C@H](C(=O)O)C(C)C)cc1`, the AC50 is > 30 µM (inactive).
Next, `O=c1cc(-c2ccco2)oc2c1ccc1ccccc12`: 7.17 µM.
For the compound `O=C(c1ccco1)N(Cc1cccc([N+](=O)[O-])c1)c1ccc(Br)cc1`, the AC50 was > 30 µM (inactive).
Turning to `O=C(Nc1sc2c(c1C(=O)O)CCC2)c1cccs1`, the AC50 was > 30 µM (inactive).
`Cc1c(C)n(CCCN(C)C)c2ncnc(NC3CCCCC3)c12`: the AC50 was > 30 µM (inactive).
With `C/C(NCCCn1ccnc1)=C(\C#N)C(N)=O`, the AC50 was 19.2 µM.
The same measure for `CCCc1cc(=O)[nH]c(SCC(=O)Nc2sc3c(c2C(N)=O)CCCC3)n1`: > 30 µM (inactive).
Turning to `C[n+]1cccc(/C=N/Nc2nc(Cl)c(C#N)c(Cl)c2Cl)c1`, the AC50 is > 30 µM (inactive).
Turning to `Cc1ccc2c(c1)COc1c3ccc(C(=O)N4CCCCC4)cc3nn1-2`, the AC50 was > 30 µM (inactive).
In the case of `CC(C)Cn1nc(NC(=O)C2CCCO2)c2cc3ccccc3nc21` (configuration not stated), the AC50 is > 30 µM (inactive).
The same measure for `O=c1c(O[C@@H]2O[C@H](CO)[C@@H](O)[C@H](O)[C@H]2O)c(-c2ccc(O)cc2)oc2cc(O)cc(O)c12`: 30.4 µM; for `NNc1nc2sc3c(c2c(=O)[nH]1)CCc1ccccc1-3`: > 30 µM (inactive).
With `Cc1cccc(NC(=O)CSCc2nc3c(nnn3Cc3ccc(F)cc3)c(=O)[nH]2)c1C`, the AC50 is > 30 µM (inactive).
Turning to `c1ccc(N2CCN(c3nc4ccccc4n4cnnc34)CC2)cc1`, the AC50 was > 30 µM (inactive).
On to `CCCCCCN=C(CC)c1c(O)n(CCCC)c(=O)[nH]c1=O`, for which the AC50 was > 30 µM (inactive).
With `O=C(NCCc1csc(-c2ccccc2)n1)c1ccc(Br)o1`, the AC50 was 17.4 µM.
For the compound `COc1ccc(Br)cc1C(=O)Nc1ccc(NC(=O)c2ccco2)cc1`, the AC50 was > 30 µM (inactive).
For `CCc1ccccc1NC(=O)CSc1nnc([C@@H](N)Cc2c[nH]c3ccccc23)o1`, the AC50 was > 30 µM (inactive).
The same measure for `C/C(=N\NC(=O)c1nnn(-c2nonc2N)c1CN(C)c1ccccc1)c1ccc(O)cc1`: > 30 µM (inactive); for `Cc1c(C(=O)N/N=C/c2ccc(O)c(Br)c2)sc(N)c1C#N`: 1.02 µM.
Next, `COc1cc2c(cc1OC)-c1c3c(cc4c1[C@@H](C2)N(C)CC4)OCO3`: 24.9 µM; `CCCc1cc(C(N)=O)c(NC(=O)C2CCCO2)s1` (configuration not stated): > 30 µM (inactive).
On to `CC1(C)Cc2cccc(C(=O)NCc3ccco3)c2O1`, for which the AC50 was > 30 µM (inactive).
For `O=C(CSc1ccccn1)Nc1ccccc1F`, the AC50 is > 30 µM (inactive).
For `CCOC(=O)c1sc(NC(=O)CSc2ncn[nH]2)c(C#N)c1C`, the AC50 was > 30 µM (inactive).
Take `Cc1nn(C)c(C)c1CN(C)S(=O)(=O)c1ccc(F)cc1`: the AC50 was > 30 µM (inactive).
The same measure for `N#CC1=C(S)N(c2ccccc2)C(c2ccco2)NC1=O` (configuration not stated): > 30 µM (inactive).
For the compound `NC(=O)N/N=C/c1c(O)ccc2oc3c(c12)CCCC3`, the AC50 is 0.845 µM.
The same measure for `O=C(/C=C/c1cccc2ccccc12)c1ccncc1`: > 30 µM (inactive); for `Cc1ccc(C(=O)N/C(=C/c2ccc(-c3cccc([N+](=O)[O-])c3)o2)C(=O)NC(C)C)cc1`: > 30 µM (inactive).
Next, `CCn1ccc(C(=O)Nc2ccsc2C(=O)OC)n1`: 30.8 µM; `Cc1noc(C)c1COc1ccc(C(=O)OCC(=O)Nc2c(C)n(C)n(-c3ccccc3)c2=O)cc1`: > 30 µM (inactive).
As for `COC(=O)Nc1nnc(COc2ccccc2)s1`, the AC50 was > 30 µM (inactive).
With `COc1ccc(/C=N/NC(=O)c2nnn(-c3nonc3N)c2CN(C)c2ccccc2)cc1`, the AC50 was > 30 µM (inactive).
In the case of `COc1ccc2nc(NC(=O)CSc3cn[nH]n3)sc2c1`, the AC50 was 9.56 µM.
The same measure for `C/C(=N\NC(=O)c1nnn(-c2nonc2N)c1-c1cccs1)c1cccc(O)c1`: 1.42 µM; for `O=[N+]([O-])c1ccc(N/N=C/c2cn(Cc3ccc(F)cc3)c3ccccc23)nc1`: > 30 µM (inactive); for `Cc1ccc(C(=O)O/N=C(\N)c2cccc([N+](=O)[O-])c2)cc1`: > 30 µM (inactive).
Turning to `CSc1ccc(/C=N/NC(=O)c2ccccc2Cl)cc1`, the AC50 is > 30 µM (inactive).
As to `CCC(Oc1ccccc1)C(=O)N(C)CC(=O)N(CC(C)C)c1c(N)n(CC(C)C)c(=O)[nH]c1=O` (configuration not stated), the AC50 was > 30 µM (inactive).
Consider `Brc1ccccc1C1=Nn2c(nnc2-c2ccccc2)SC1`, for which the AC50 is > 30 µM (inactive).
As to `O=C(Nc1cccc(C(=O)NC2CCCCC2)c1)c1ccccc1`, the AC50 was > 30 µM (inactive).
`O=C(CSc1ccccc1)Nc1ccc2c(c1)C(=O)NC2=O`: the concentration at half-maximal activity (AC50) was 6.21 µM.
As for `O=C1CCCC2=C1C(c1cccc(O)c1)c1c(ccc3ncccc13)N2` (configuration not stated), the AC50 was > 30 µM (inactive).
`COCc1c(C(=O)N/N=C\c2cccnc2)nnn1-c1nonc1N`: the AC50 is > 30 µM (inactive).
Next, `COc1ccccc1OCCNC(=O)C1CCN(C(C)=O)CC1`: > 30 µM (inactive).
For `COC(=O)c1ccc(CSc2nnc(SCc3ccc(C(=O)OC)o3)s2)o1`, the AC50 was > 30 µM (inactive).
Turning to `COc1ccccc1-n1c(O)c(C=NCc2ccc3c(c2)OCO3)c(=O)[nH]c1=O`, the AC50 is 31.3 µM.
Next, `COc1ccc(-c2cc(C(=O)N3CCN(c4ccccc4)CC3)no2)cc1`: > 30 µM (inactive).
The same measure for `Nc1nc(N)nc(-c2cc(O)ccc2O)n1`: 11.8 µM; for `CCOc1ccc(-c2ncncc2-c2ccc(OC)cc2)c(O)c1`: > 30 µM (inactive).
For the compound `O=c1[nH]nc(SCc2nnc(-c3cccc(Cl)c3)o2)n1C1CCCCC1`, the AC50 was > 30 µM (inactive).
For the compound `Nc1nonc1-n1nnc(C(=O)N/N=C/c2ccco2)c1CSc1ccccc1`, the AC50 is > 30 µM (inactive).
For `Clc1ccc(CSc2nncn2-c2ccc3c(c2)OCCO3)cc1`, the AC50 was > 30 µM (inactive).
For `O=C(O)Cn1cc(/C=N/NC(=O)c2cc3cc(Br)ccc3o2)c2ccccc21`, the AC50 was 6.05 µM.
As for `COc1ccc(-c2cn3cccnc3n2)cc1NC(=O)CC(C)C`, the AC50 is > 30 µM (inactive).
`O=C(O)c1ccc(Nc2nc(-c3ccccc3)nc3ccccc23)cc1`: the AC50 was > 30 µM (inactive).
Next, `CCCc1c(C(=O)N/N=C/c2cccnc2)nnn1-c1nonc1N`: > 30 µM (inactive); `CC(=O)Nc1ccc(OC(=O)CC2SC(=O)NC2=O)cc1` (configuration not stated): > 30 µM (inactive).
Turning to `COc1cc(SC)ccc1C(=O)Nc1nc(C)cc(C)n1`, the AC50 is > 30 µM (inactive).
For `COc1ccc(C(=O)NNC(=O)c2ccccn2)cc1`, the AC50 was 11.8 µM.
Regarding `N#C/C(C(N)=O)=C1/CCc2ccccc2N1`, the AC50 is 12.5 µM.
Consider `S=C(Nc1cccnc1)Nc1ccccn1`, for which the AC50 is > 30 µM (inactive).
As for `COc1cccc(-c2c(C(=O)N/N=C(\C)c3cccs3)nnn2-c2nonc2N)c1`, the AC50 was 1.61 µM.
`COc1cccc(N/C(SC)=C(/C#N)C(N)=O)c1`: the AC50 is 30 µM.
For the compound `Cn1c(=O)c2[nH]c(NCC3CCCO3)nc2n(-c2ccccc2)c1=O` (configuration not stated), the AC50 is 11 µM.
The same measure for `COc1ccc(C(=O)Nc2nncs2)cc1S(=O)(=O)N1CC(c2ccccc2)CC1=O` (configuration not stated): > 30 µM (inactive); for `COc1ccc(C(=O)NCC(=O)N/N=C(C)\C=C\c2ccccc2)cc1OC`: > 30 µM (inactive).
Consider `CCCCN(CCCC)c1cn[nH]c(=O)c1Cl`, for which the AC50 was 11.2 µM.
Turning to `C/C(=N\NC(=O)c1nnn(-c2nonc2N)c1CN(C)C)c1ccco1`, the AC50 was > 30 µM (inactive).
Take `Fc1ccc(/C=N/Nc2nccnc2Cl)cc1`: the AC50 is > 30 µM (inactive).
With `O=c1[nH]cnc(O)c1N=Nc1ccccc1`, the AC50 was 9.87 µM.
The same measure for `N#C/C(=N\Nc1ccccc1Cl)C(=O)c1ccccc1`: > 30 µM (inactive); for `CN(C(=O)CN1CC=C(c2ccccc2)CC1)c1c(N)n(Cc2ccccc2)c(=O)[nH]c1=O`: > 30 µM (inactive); for `CCN(CC)Cc1c(C(=O)N/N=C(\C)c2ccncc2)nnn1-c1nonc1N`: 9.96 µM.
Next, `CCNc1c(C(=O)O)ccc2c1C(=O)c1ccccc1C2=O`: > 30 µM (inactive).
Regarding `O=C(CSCCc1ccccn1)Nc1ccccn1`, the AC50 is > 30 µM (inactive).
As to `CCC(=N\NC(=O)COc1ccccc1OC)/C(CC)=N/NC(=O)COc1ccccc1OC`, the AC50 was > 30 µM (inactive).
Regarding `CCOC(=O)c1nnn(-c2nonc2N)c1-c1ccc(Br)cc1`, the AC50 is 12.4 µM.
As to `CC1=C(C(=O)OC2CCCCC2)C(c2cccs2)n2c(nc3ccccc32)N1` (configuration not stated), the AC50 is > 30 µM (inactive).
As to `O=Nc1c(-c2c(O)[nH]c3cc(Br)ccc23)[nH]c2ccccc12`, the AC50 was less than 0.0135 µM.
For the compound `O=c1[nH]ncc(N/N=C\c2cccs2)c1Cl`, the AC50 was 6.07 µM.
The same measure for `COc1cc(C(=O)NCC(=O)N/N=C\C(C)=C/c2ccccc2)cc(OC)c1OC`: > 30 µM (inactive).
The same measure for `CCn1c2ccccc2c2nc3ccccc3nc21`: > 30 µM (inactive).
In the case of `CC1=CC(=C2C(=O)c3ccccc3C2=O)C=C(C)N1Cc1ccco1`, the AC50 is > 30 µM (inactive).
For the compound `C=CCN1C(=O)/C(=C\c2ccco2)C(C(=O)OC)=C1C`, the AC50 was > 30 µM (inactive).

The values above are taken from PubChem BioAssay AID463203 (Broad Institute, 2010).
